The term IC50 denotes the concentration needed to halve the response being measured.

Two compounds from patent US10752626B2, “Iso-citrate dehydrogenase (IDH) inhibitor” (SHANGHAI METON PHARMACEUTICAL CO., LTD, priority 2016, dated 2020) can be followed below.

The target in one experiment is IDH1 R132H (Homo sapiens (Human), UniProt O75874, R132H). The experiment is described as follows: Biochemical assay for inhibition of mutant IDH1 R132H. Particulars: tested in triplet. The text has this:
(§1) The present disclosure provides a biochemical assay method for detecting the IDH inhibition and selectivity of the compounds by detecting IDH enzyme activity directly.
(§2) Wild-type IDH enzyme could convert NADP^+ to NADPH when it catalyzes the α-KG producing reaction. Mutant IDH enzyme could convert NADPH to NADP^+ when it catalyzes the D-2-HG producing reaction. So the activity of wild-type and mutant IDH1/2 could be measured by monitoring NADPH level change: in the reaction catalyzed by wild-type IDH1/2, the newly generated NADPH is utilized instantly by coupled diaphorase-resazurin reaction to generate resorufin which is fluorescent (at Excitation 544 nm, Emission 590 nm) and thus NADPH is monitored indirectly; while in the reaction catalyzed by mutant IDH1/2, NADPH is directly monitored as it is fluorescent (at Excitation 340 nm, Emission 460 nm). By monitoring the change of NADPH level in the reaction, the enzyme activity could be determined rapidly and efficiently, IC50 of a compound could also be assayed.
(§3) The test compounds were prepared into 50 mM stock solutions in DMSO and stored at −20° C. Each test compound stock was further diluted to obtain a 100× stock solution at a concentration of 200 μM, 100 μM, 50 μM, 25 μM, 12.5 jμM, 6.25 μM and 3.125 μM, respectively, for the final use on the day of test.
(§4) Inhibition of Mutant IDHJ (R132H or R132C):
(§5) Solution A was prepared by combining 1 M Tris-HCl pH7.5 (300 μL), 5 M NaCl (450 μL), 1 M MgCl2 (150 μL), 1 M DTT (15 μL), 20 mg/mL BSA (37.5 μL), 20 mM NADPH (20 μL), and 0.5 mM α-KG (40 μL), followed by adding deionized water to a final volume of 15 mL.
(§6) Reaction buffer was prepared by combining 1 M Tris-HCl pH 7.5 (200 μL), 5 M NaCl (300 μL), 1 M MgCl2 (100 μL), 1 M DTT (10 μL) and 20 mg/mL BSA (25 μL), followed by adding deionized water to a final volume of 10 mL.
(§7) Solution B was prepared by combining the reaction buffer (5 mL) and […] IDH1-R132H (5.21 μL) or 107 μM IDH1-R132C (4.67 μL).
(§8) 148 μL Solution A was added into each sample well of a 96-well plate P1, and then 2 μL of the test compound solution at each concentration and 2 μL of DMSO (negative control/blank) were added into individual sample well respectively. 50 μL of Solution B was added into each of the sample wells having test compounds and one sample well having DMSO only, and 50 μL of reaction buffer was added into another sample well having DMSO only, respectively. P1 was put into BioTek Synergy H4 Microplate reader (BioTek Instruments Inc., Winooski, U.S.), and the program was set as follows: 37° C., shake plate 5 seconds, run kinetic mode, total detection time 20 min, detection intervals 40 seconds, detection mode fluorescence (at Excitation 340 nm, Emission 460 nm). The data were exported, the relative enzyme activity and the half-maximal inhibitory concentration (IC50) for the test compound were calculated. Relative enzyme activity was calculated as the absolute value of the slope of the Emission 460 reads of each well plotted against time (which represents the conversion rate of ca-KG to 2-HG through IDH1 modulated utilization of NADPH). The Dose-response curve was drawn and the IC50 was calculated via fitting. The IDH inhibition and selectivity of each test compound can be evaluated according to the effect of the compounds on the IDH enzyme activity.
(§9) The IDH inhibition activity of the compounds were assessed according to Test 5 of the Biological evaluation section. The test for mutant IDH1 R132H/R132C inhibition of each compound was carried out in triplet. For IDH1 R132H, the enzyme activity of exemplary Compounds 16, 21, 22, 23, 24 and 31 is plotted as a function of logarithm of the concentration of the compound in FIGS. 8A-8C, 9A-9C, 10A-10C, 11A-11C, 12A-12C and 13A-13C, respectively. […]

For a further experiment, the target named is IDH1 R132C (Homo sapiens (Human), UniProt O75874, R132C). Kind of experiment: Biochemical assay for inhibition of mutant IDH1 R132C. The following applies: tested in triplet.
Excerpt: as §1, §2, §3, §4, §5, §6, §7, §8, §9

Chain of IDH1 R132C (O75874 whole entry R132C): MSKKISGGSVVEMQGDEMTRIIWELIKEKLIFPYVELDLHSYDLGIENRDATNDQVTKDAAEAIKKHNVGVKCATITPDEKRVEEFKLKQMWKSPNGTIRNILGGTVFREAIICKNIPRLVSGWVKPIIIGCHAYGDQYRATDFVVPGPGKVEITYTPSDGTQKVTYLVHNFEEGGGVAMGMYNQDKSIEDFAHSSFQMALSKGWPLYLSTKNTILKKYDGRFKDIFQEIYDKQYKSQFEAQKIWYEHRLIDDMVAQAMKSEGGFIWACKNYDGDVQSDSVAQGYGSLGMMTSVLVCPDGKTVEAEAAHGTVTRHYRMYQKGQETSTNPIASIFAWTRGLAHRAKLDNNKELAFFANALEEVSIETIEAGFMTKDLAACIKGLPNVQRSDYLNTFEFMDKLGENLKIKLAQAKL
Chain of IDH1 R132H (O75874 whole entry R132H): as the sequence (O75874 whole entry R132C) above, with C132H counted along it

Consider `CCN1Cc2c(ccnc2N[C@@H](C)c2ccc(Oc3ccc(C)cc3)cc2)C1=O` [Compound 16, (S)-2-ethyl-4-(1-(4-(p-tolyloxy)phenyl)ethylamino)-2,3-dihydro-1H-pyrrolo [3,4-c]pyridin-1-one], for which the figures for the 50% inhibitory concentration (IC50) at IDH1 R132H and at IDH1 R132C were less than 1000 nM and less than 1500 nM, respectively.

For the compound `CCN1Cc2c(ccnc2N[C@@H](C)c2ccc(Oc3ccccc3)c(F)c2)C1=O` [Compound 23, (S)-2-ethyl-4-((1-(3-fluoro-4-phenoxyphenyl)ethyl)amino)-2,3-dihydro-1H-pyrrolo[3,4-c]pyridin-1-one], the IC50 at IDH1 R132H is less than 1000 nM; at IDH1 R132C it was less than 1500 nM.
